Reference: patent publication US20040063662A1, “Selenophene anti-tumor agents” (priority 1996, published 2004)

Assays:
CAKI-1 = assay: NCI human tumor cell panel: CAKI-1 (Renal Cancer); assay type: cell-based
HCT-15 = assay: NCI human tumor cell panel: HCT-15 (Colon Cancer); assay type: cell-based
ACHN = assay: NCI human tumor cell panel: ACHN (Renal Cancer); assay type: cell-based
NCI-H522 = assay: NCI human tumor cell panel: NCI-H522 (Non-Small Cell Lung Cancer)
[1] = system: panel of sixty different human tumor cell lines; assay: NCI human tumor cell panel: whole panel (mean graph summary); conditions: whole panel
COLO 205 = assay: NCI human tumor cell panel: COLO 205 (Colon Cancer); assay type: cell-based
NCI-H226 = assay: NCI human tumor cell panel: NCI-H226 (Non-Small Cell Lung Cancer); assay type: cell-based
HT29 = assay: NCI human tumor cell panel: HT29 (Colon Cancer); assay type: cell-based; conditions: HT-29, HT29, read-out: Log10 TGI (converted)
SK-MEL-28 = assay: NCI human tumor cell panel: SK-MEL-28 (Melanoma); assay type: cell-based
OVCAR-3 = assay: NCI human tumor cell panel: OVCAR-3 (Ovarian Cancer); assay type: cell-based
TK-10 = assay: NCI human tumor cell panel: TK-10 (Renal Cancer); assay type: cell-based
SF-268 = assay: NCI human tumor cell panel: SF-268 (CNS Cancer); assay type: cell-based
HCC-2998 = assay: NCI human tumor cell panel: HCC-2998 (Colon Cancer); assay type: cell-based
MDA-MB-231/ATCC = assay: NCI human tumor cell panel: MDA-MB-231/ATCC (Breast Cancer); assay type: cell-based; conditions: Homo sapiens, MDA-MB-231, MDA-MB-231/ATCC
RXF-393 = assay: NCI human tumor cell panel: RXF-393 (Renal Cancer); assay type: cell-based
U251 = assay: NCI human tumor cell panel: U251 (CNS Cancer); assay type: cell-based
SK-OV-3 = assay: NCI human tumor cell panel: SK-OV-3 (Ovarian Cancer); assay type: cell-based; conditions: SK-OV-3, read-out: Log10 GI50 (converted)
A549/ATCC = assay: NCI human tumor cell panel: A549/ATCC (Non-Small Cell Lung Cancer); assay type: cell-based
T-47D = assay: NCI human tumor cell panel: T-47D (Breast Cancer); assay type: cell-based; conditions: T47D
NCI-H322M = assay: cells; assay type: cell-based; conditions: Homo sapiens
EKVX = assay: NCI human tumor cell panel: EKVX (Non-Small Cell Lung Cancer); assay type: cell-based
MOLT-4 = assay: NCI human tumor cell panel: MOLT-4 (Leukemia); assay type: cell-based
SNB-19 = assay: NCI human tumor cell panel: SNB-19 (CNS Cancer); assay type: cell-based
K-562 = assay: NCI human tumor cell panel: K-562 (Leukemia); assay type: cell-based
KM12 = assay: NCI human tumor cell panel: KM12 (Colon Cancer); assay type: cell-based
PC-3 = assay: NCI human tumor cell panel: PC-3 (Prostate Cancer); assay type: cell-based
HL-60(TB) = assay: NCI human tumor cell panel: HL-60(TB) (Leukemia); assay type: cell-based
HCT-116 = assay: NCI human tumor cell panel: HCT-116 (Colon Cancer); assay type: cell-based
MALME-3M = assay: NCI human tumor cell panel: MALME-3M (Melanoma); assay type: cell-based; conditions: Malme-3M
[2] = read-out: Log10 GI50 (converted)
[3] = read-out: Log10 TGI (converted)

OCc1ccc(-c2ccc(-c3ccc(CO)s3)[se]2)s1 [compound 675343]
3.39 µM: IC (TGI) (HCC-2998; HCC-2998, read-out: Log10 TGI (converted))
32.4 µM: IC (TGI) (OVCAR-3; OVCAR-3, read-out: Log10 TGI (converted))
3.59: Log10 TGI, Range [1]
1.05 µM: IC (TGI) (COLO 205; COLO 205, read-out: Log10 TGI (converted))
0.0257 µM: GI50 (OVCAR-3; OVCAR-3, read-out: Log10 GI50 (converted))
−4.06: Log10 LC50, Delta [1]
< 0.01 µM: GI50 (CAKI-1; CAKI-1, read-out: Log10 GI50 (converted)) | IC (TGI) (CAKI-1; CAKI-1, read-out: Log10 TGI (converted)) | GI50 (COLO 205; COLO 205, read-out: Log10 GI50 (converted)) | GI50 (NCI-H226; NCI-H226, read-out: Log10 GI50 (converted)) | GI50 (TK-10; TK-10, read-out: Log10 GI50 (converted)) | IC (TGI) (TK-10; TK-10, read-out: Log10 TGI (converted)) | GI50 (HCC-2998; HCC-2998, read-out: Log10 GI50 (converted)) | GI50 (U251; U-251, U251, read-out: Log10 GI50 (converted)) | GI50 (K-562; K562, K-562, read-out: Log10 GI50 (converted)) | GI50 (HCT-116; HCT-116, read-out: Log10 GI50 (converted))
0.724 µM: GI50 (T-47D; [2])
61.7 µM: GI50 (HL-60(TB); [2])
−5.36: Log10 GI50, Delta [1]
9.77 µM: GI50 (NCI-H322M; [2])
≥ 100 µM: GI50 (NCI-H522; NCI-H522, read-out: Log10 GI50 (converted))
20.9 µM: GI50 (RXF-393; RXF-393, read-out: Log10 GI50 (converted))
> 100 µM: GI50 (HCT-15; HCT-15, read-out: Log10 GI50 (converted)) | IC (TGI) (HCT-15; HCT-15, read-out: Log10 TGI (converted)) | GI50 (ACHN; [2]) | IC (TGI) (ACHN; [3]) | IC (TGI) (NCI-H522; NCI-H522, read-out: Log10 TGI) | IC (TGI) (HT29) | GI50 (SK-MEL-28; SK-MEL-28, read-out: Log10 GI50 (converted)) | IC (TGI) (SK-MEL-28; SK-MEL-28, read-out: Log10 TGI (converted)) | GI50 (SF-268; SF-268, read-out: Log10 GI50 (converted)) | IC (TGI) (SF-268; SF-268, read-out: Log10 TGI (converted)) | GI50 (MDA-MB-231/ATCC; [2]) | IC (TGI) (MDA-MB-231/ATCC; [3]) | IC (TGI) (RXF-393; RXF-393, read-out: Log10 TGI (converted)) | IC (TGI) (U251; U-251, U251, read-out: Log10 TGI (converted)) | GI50 (SK-OV-3) | GI50 (A549/ATCC; [2]) | IC (TGI) (A549/ATCC; [3]) | IC (TGI) (T-47D; [3]) | IC (TGI) (NCI-H322M; [3]) | GI50 (EKVX; [2]) | IC (TGI) (EKVX; [3]) | GI50 (SNB-19; SNB-19, read-out: Log10 GI50 (converted)) | IC (TGI) (SNB-19; SNB-19, read-out: Log10 TGI (converted)) | GI50 (KM12; KM12, read-out: Log10 GI50 (converted)) | IC (TGI) (KM12; KM12, read-out: Log10 TGI (converted)) | GI50 (PC-3; PC-3, read-out: Log10 GI50 (converted)) | IC (TGI) (PC-3; PC-3, read-out: Log10 TGI (converted)) | IC (TGI) (HL-60(TB); read-out: Log10 TGI) | IC (TGI) (HCT-116; HCT-116, read-out: Log10 TGI (converted)) | GI50 (MALME-3M; [2]) | IC (TGI) (MALME-3M; [3])
0.0724 µM: IC (TGI) (NCI-H226; NCI-H226, read-out: Log10 TGI (converted))
26.3 µM: IC (TGI) (K-562; K562, K-562, read-out: Log10 TGI (converted))
87.1 µM: IC (TGI) (MOLT-4; MOLT-4, read-out: Log10 TGI (converted))
28.8 µM: GI50 (MOLT-4; MOLT-4, read-out: Log10 GI50 (converted))
−4.41: Log10 TGI, Delta [1]
